Assay results published in patent US12077503B2, “Substituted cyclic amides and their use as herbicides” (FMC CORPORATION, priority 2015, dated 2024).

Columns and labels:
Type in all cases: in vivo
[1] = system: giant foxtail (Setaria faberii); experiment: Test A preemergence; settings: Setaria faberi, pre-emergence, 240 h, Preemergence
Method in brief: (§1)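 Ratings of 0 (no effect) to 100 (complete control) come from visual comparison with untreated controls roughly 10 d after treatment. Test chemicals, formulated in a non-phytotoxic solvent mixture with surfactant, were applied either as a preemergence directed soil spray on seeded soil or postemergence to one- to two-leaf plants 2 to 10 cm tall.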

[2] = system: ryegrass, Italian (Italian ryegrass, Lolium multiflorum); experiment: Test A preemergence; settings: Lolium multiflorum, pre-emergence, 240 h, Preemergence
Method in brief: as §1

[3] = system: barnyardgrass (Echinochloa crus-galli); experiment: Test A preemergence; settings: Echinochloa crus-galli, pre-emergence, 240 h, Preemergence
Method in brief: as §1

[4] = system: ragweed (common ragweed, Ambrosia elatior); experiment: Test A preemergence; settings: Ambrosia artemisiifolia, pre-emergence, 240 h, Preemergence
Method in brief: as §1

Kochia (Kochia scoparia) [5] = experiment: Test A preemergence; settings: Bassia scoparia, pre-emergence, 240 h, Preemergence
Method in brief: as §1

[6] = system: pigweed (Amaranthus retroflexus); experiment: Test A preemergence; settings: Amaranthus retroflexus, pre-emergence, 240 h, Preemergence
[7] = system: blackgrass (Alopecurus myosuroides); experiment: Test A postemergence; settings: Alopecurus myosuroides, post-emergence, 240 h, Postemergence, read-out: Blackgrass plant response rating (0 to 100 scale)
Method in brief: as §1

[8] = system: giant foxtail (Setaria faberii); experiment: Test A postemergence; settings: Setaria faberi, post-emergence, 240 h, Postemergence, read-out: Foxtail, Giant plant response rating (0 to 100 scale)
Method in brief: as §1

[9] = system: wheat (Triticum aestivum); experiment: Test A postemergence; settings: Triticum aestivum, post-emergence, 240 h, Postemergence, read-out: Wheat plant response rating (0 to 100 scale)
Method in brief: as §1

[10] = system: ryegrass, Italian (Italian ryegrass, Lolium multiflorum); experiment: Test A postemergence; settings: Lolium multiflorum, post-emergence, 240 h, Postemergence, read-out: Ryegrass, Italian plant response rating (0 to 100 scale)
Method in brief: as §1

corn (Zea mays) = experiment: Test A postemergence; settings: Zea mays, post-emergence, 240 h, Postemergence, read-out: Corn plant response rating (0 to 100 scale)
Method in brief: as §1

[11] = system: barnyardgrass (Echinochloa crus-galli); experiment: Test A postemergence; settings: Echinochloa crus-galli, post-emergence, 240 h, Postemergence
Method in brief: as §1

[12] = system: ragweed (common ragweed, Ambrosia elatior); experiment: Test A postemergence; settings: Ambrosia artemisiifolia, post-emergence, 240 h, Postemergence, read-out: Ragweed plant response rating (0 to 100 scale)
Method in brief: as §1

Kochia (Kochia scoparia) [13] = experiment: Test A postemergence; settings: Bassia scoparia, post-emergence, 240 h, Postemergence, read-out: Kochia plant response rating (0 to 100 scale)
Method in brief: as §1

[14] = system: pigweed (Amaranthus retroflexus); experiment: Test A postemergence; settings: Amaranthus retroflexus, post-emergence, 240 h, Postemergence, read-out: Pigweed plant response rating (0 to 100 scale)
Method in brief: as §1

[15] = system: Galium (catchweed bedstraw, Galium aparine); experiment: Test A postemergence; settings: Galium, post-emergence, 240 h, Postemergence, read-out: Galium plant response rating (0 to 100 scale)
Method in brief: as §1

[16] = system: ducksalad (Heteranthera limosa); experiment: Test B flooded paddy test; settings: Heteranthera limosa, 360 h, Flood, 250 g ai/ha; visually evaluated after 13 to 15 d; read-out: Plant response rating, Ducksalad (0 to 100 scale where 0 is no effect and 100 is complete control)
Method in brief: (§2)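 Percent control, visually estimated after 13–15 d in the greenhouse on a 0–100 basis, compares treated pots with untreated ones; compound was put into paddy water 3 cm above the soil when plants had two leaves.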

[17] = system: barnyardgrass (Echinochloa crus-galli); experiment: Test B flooded paddy test; settings: Echinochloa crus-galli, 360 h, Flood, 250 g ai/ha; visually evaluated after 13 to 15 d; read-out: Plant response rating, Barnyardgrass (0 to 100 scale where 0 is no effect and 100 is complete control)
Method in brief: as §2

[18] = system: sedge, umbrella (small-flower umbrella sedge, Cyperus difformis); experiment: Test B flooded paddy test; settings: Cyperus difformis, 360 h, Flood, 250 g ai/ha; visually evaluated after 13 to 15 d; read-out: Plant response rating, Sedge, Umbrella (0 to 100 scale where 0 is no effect and 100 is complete control)
Method in brief: as §2

rice (Oryra sativa) = experiment: Test B flooded paddy test; settings: Oryza sativa, 360 h, Flood, 250 g ai/ha; visually evaluated after 13 to 15 d; read-out: Plant response rating, Rice (0 to 100 scale where 0 is no effect and 100 is complete control)
Method in brief: as §2

[19] = 125 g ai/ha, visual rating about 10 d after treatment
[20] = 31 g ai/ha, 0 is no effect, 100 is complete control

**Q.** With `O=C1NC[C@H](c2cc(Br)cc(Br)c2)[C@H]1C(=O)Nc1cccc(F)c1F` [Compound 1366] as the molecule, how does the pest or weed control at 31 g/ha ([1]; 31 g ai/ha, 0 to 100 scale where 0 is no effect and 100 is complete control, read-out: Foxtail, Giant plant response rating) read?
**A.** 50%

**Q.** And the pest or weed control at 125 g/ha ([1]; 125 g ai/ha, 0 to 100 scale (0 no effect, 100 complete control), read-out: Plant response rating, Foxtail, Giant)?
**A.** 90%

**Q.** What about the pest or weed control at 31 g/ha ([2]; 31 g ai/ha, 0 to 100 scale where 0 is no effect and 100 is complete control, read-out: Ryegrass, Italian plant response rating) of the same molecule?
**A.** 0%

**Q.** And the pest or weed control at 125 g/ha ([2]; 125 g ai/ha, 0 to 100 scale (0 no effect, 100 complete control), read-out: Plant response rating, Ryegrass, Italian)?
**A.** 10%

**Q.** What about the pest or weed control at 31 g/ha ([3]; 31 g ai/ha, 0 to 100 scale where 0 is no effect and 100 is complete control, read-out: Barnyardgrass plant response rating) of the same molecule?
**A.** 60%

**Q.** And the pest or weed control at 125 g/ha ([3]; 125 g ai/ha, 0 to 100 scale (0 no effect, 100 complete control), read-out: Plant response rating, Barnyardgrass)?
**A.** 70%

**Q.** What about the pest or weed control at 31 g/ha ([4]; 31 g ai/ha, 0 to 100 scale where 0 is no effect and 100 is complete control, read-out: Ragweed plant response rating) of the same molecule?
**A.** 0%

**Q.** What about the pest or weed control at 125 g/ha ([4]; 125 g ai/ha, 0 to 100 scale (0 no effect, 100 complete control), read-out: Plant response rating, Ragweed) of the same molecule?
**A.** 0%

**Q.** And the pest or weed control at 31 g/ha (Kochia (Kochia scoparia) [5]; 31 g ai/ha, 0 to 100 scale where 0 is no effect and 100 is complete control, read-out: Kochia plant response rating)?
**A.** 0%

**Q.** What about the pest or weed control at 125 g/ha (Kochia (Kochia scoparia) [5]; 125 g ai/ha, 0 to 100 scale (0 no effect, 100 complete control), read-out: Plant response rating, Kochia) of the same molecule?
**A.** 0%

**Q.** What about the pest or weed control at 31 g/ha ([6]; 31 g ai/ha, 0 to 100 scale where 0 is no effect and 100 is complete control, read-out: Pigweed plant response rating) of the same molecule?
**A.** 0%

**Q.** And the pest or weed control at 125 g/ha ([6]; 125 g ai/ha, 0 to 100 scale (0 no effect, 100 complete control), read-out: Plant response rating, Pigweed)?
**A.** 0%

**Q.** And the pest or weed control at 125 g/ha [7, 19]?
**A.** 0%

**Q.** And the pest or weed control at 31 g/ha [7, 20]?
**A.** 0%

**Q.** And the pest or weed control at 125 g/ha [8, 19]?
**A.** 70%

**Q.** What about the pest or weed control at 31 g/ha [8, 20] of the same molecule?
**A.** 30%

**Q.** And the plant injury at 125 g/ha [9, 19]?
**A.** 0%

**Q.** What about the plant injury at 31 g/ha [9, 20] of the same molecule?
**A.** 0%

**Q.** And the pest or weed control at 125 g/ha [10, 19]?
**A.** 0%

**Q.** And the pest or weed control at 31 g/ha [10, 20]?
**A.** 0%

**Q.** What about the plant injury at 125 g/ha (corn (Zea mays); [19]) of the same molecule?
**A.** 0%

**Q.** And the plant injury at 31 g/ha (corn (Zea mays); [20])?
**A.** 0%

**Q.** And the pest or weed control at 125 g/ha ([11]; 125 g ai/ha, visual rating about 10 d after treatment, read-out: Barnyardgrass plant response rating (0 to 100 scale, 0 no effect, 100 complete control))?
**A.** 70%

**Q.** And the pest or weed control at 31 g/ha ([11]; 31 g ai/ha, 0 is no effect, 100 is complete control, read-out: Barnyardgrass plant response rating (0 to 100 scale))?
**A.** 20%

**Q.** What about the pest or weed control at 125 g/ha [12, 19] of the same molecule?
**A.** 0%

**Q.** What about the pest or weed control at 31 g/ha [12, 20] of the same molecule?
**A.** 0%

**Q.** What about the pest or weed control at 125 g/ha (Kochia (Kochia scoparia) [13]; [19]) of the same molecule?
**A.** 0%

**Q.** What about the pest or weed control at 31 g/ha (Kochia (Kochia scoparia) [13]; [20]) of the same molecule?
**A.** 0%

**Q.** And the pest or weed control at 125 g/ha [14, 19]?
**A.** 80%

**Q.** What about the pest or weed control at 31 g/ha [14, 20] of the same molecule?
**A.** 0%

**Q.** And the pest or weed control at 125 g/ha [15, 19]?
**A.** 70%

**Q.** And the pest or weed control at 31 g/ha [15, 20]?
**A.** 0%

**Q.** What about the pest or weed control at 250 g/ha [16] of the same molecule?
**A.** 80%

**Q.** And the pest or weed control at 250 g/ha [17]?
**A.** 40%

**Q.** And the pest or weed control at 250 g/ha [18]?
**A.** 0%

**Q.** And the pest or weed control at 250 g/ha (rice (Oryra sativa))?
**A.** 0%
